Patent publication US20050119304A1, “Urea derivatives” (priority 2001, published 2005)
pIC50: −log10 of the molar value.

What was measured:
human VR1 = target: T1, human VR1 (Homo sapiens, UniProt Q8NER1); experiment: Capsaicin-induced Ca2+ influx in the human VR1-transfected CHO cell line (Assay 1); assay type: cell-based; conditions: read-out: hVR1 class
T1 construct: The cloned hVR1 cDNA was constructed with pcDNA3 vector and transfected into a CHOluc9aeq cell line; expressed in transfected cells
T1 sequence (Q8NER1 whole entry): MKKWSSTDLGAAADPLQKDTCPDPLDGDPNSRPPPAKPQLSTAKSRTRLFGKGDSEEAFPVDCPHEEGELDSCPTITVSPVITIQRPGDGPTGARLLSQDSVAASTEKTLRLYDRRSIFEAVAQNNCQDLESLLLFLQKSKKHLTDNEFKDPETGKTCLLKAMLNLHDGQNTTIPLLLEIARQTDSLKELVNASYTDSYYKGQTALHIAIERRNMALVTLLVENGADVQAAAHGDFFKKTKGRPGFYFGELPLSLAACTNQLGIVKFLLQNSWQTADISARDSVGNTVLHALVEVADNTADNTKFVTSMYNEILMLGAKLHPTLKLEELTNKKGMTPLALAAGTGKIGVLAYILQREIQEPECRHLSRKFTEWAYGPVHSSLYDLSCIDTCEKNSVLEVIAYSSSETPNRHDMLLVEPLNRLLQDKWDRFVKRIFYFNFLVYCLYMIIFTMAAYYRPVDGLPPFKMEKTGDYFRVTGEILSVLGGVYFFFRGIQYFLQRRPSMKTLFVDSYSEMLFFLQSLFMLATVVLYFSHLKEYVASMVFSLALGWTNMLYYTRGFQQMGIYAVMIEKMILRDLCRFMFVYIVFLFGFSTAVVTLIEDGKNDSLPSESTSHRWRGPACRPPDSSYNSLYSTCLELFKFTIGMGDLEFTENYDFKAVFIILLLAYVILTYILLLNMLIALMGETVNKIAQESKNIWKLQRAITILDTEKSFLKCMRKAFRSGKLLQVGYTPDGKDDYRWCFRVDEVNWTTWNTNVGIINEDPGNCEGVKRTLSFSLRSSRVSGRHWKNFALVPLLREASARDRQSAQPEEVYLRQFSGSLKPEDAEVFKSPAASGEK
Source text: [Measurement of Capsaicin-Induced Ca^2+ Influx in the Human VR1-Transfected CHO Cell Line] (Assay 1)
(1) Establishment of the Human VR1-CHOluc9aeq Cell Line
Human vanilloid receptor (hVR1) cDNA was cloned from libraries of axotomized dorsal root ganglia (WO2000/29577). The cloned hVR1 cDNA was constructed with pcDNA3 vector and transfected into a CHOluc9aeq cell line. The cell line contains aequorin and CRE-luciferase reporter genes as read-out signals. The transfectants were cloned by limiting dilution in selection medium (DMEM/F12. medium (Gibco BRL) supplemented with 10% FCS, 1.4 mM Sodium pyruvate, 20 mM HEPES, 0.15% Sodium bicarbonate, 100 U/ml penicillin, 100 μg/ml strept mycin, 2 mM glutamine, non-essential amino acids and 2 mg/ml G418). Ca^2+ influx was examined in the capsaicin-stimulated clones. A high responder clone was selected and used for further experiments in the project. The human VR1-CHOluc9aeq cells were maintained in the selection medium and passaged every 3-4 days at 1-2.5×10^5 cells/flask ([…]).
(2) Measurement of Ca^2+ Influx Using FDSS-3000
Human VR1-CHOluc9aeq cells were suspended in a culture medium which is the same as the selection medium except for G418 and seeded at a density of 1,000 cells per well into 384-well plates (black walled clear-base/Nalge Nunc International). Following the culture for 48 hrs the medium was changed to 2 μM Fluo-3 AM (Molecular Probes) and 0.02% Puronic F-127 in assay buffer (Hank's balanced salt solution (HBSS), 17 mM HEPES (pH7.4), 1 mM Probenecid, 0.1% BSA) and the cells were incubated for 60 min at 25° C. After washing twice with assay buffer the cells were incubated with a test compound or vehicle for 20 min at 25° C. Mobilization of cytoplasmic Ca^2+ was measured by FDSS-3000 (λex=488 nm, λem=540 nm/Hamamatsu Photonics) for 60 sec after the stimulation with 10 nM capsaicin. Integral R was calculated and compared with controls.
The data corresponds to the compounds as yielded by solid phase synthesis and thus to levels of purity of about 40 to 90%.

| Structure (SMILES) | melting point | pIC50 (human VR1) |
| --- | --- | --- |
| O=C(Nc1ccc(Cl)c(C(F)(F)F)c1)Nc1ccc2[nH]cnc2c1 [Example 57] | 218 to 220 °C | 6.30 to 7.00 |
| O=C(Nc1ccc(Oc2ccccc2)cc1)Nc1ccc2[nH]cnc2c1 [Example 58] | 235 to 237 °C | 6.30 to 7.00 |
| CC(C)c1ccc(NC(=O)Nc2ccc3[nH]cnc3c2)cc1 [Example 59] | 226 to 229 °C | 6.00 to 6.30 |
| O=C(Nc1ccc(Br)cc1)Nc1cccc2[nH]ccc12 [Example 60] | 238 to 240 °C | 6.30 to 7.00 |
| COc1ccc(NC(=O)Nc2cccc3[nH]ccc23)cc1 [Example 61] | 230 to 232 °C | 6.00 to 6.30 |
| O=C(Nc1cccc2ccccc12)Nc1cccc2[nH]ccc12 [Example 62] | > 250 °C | > 7.00 |
| O=C(Nc1ccc(Cl)c(Cl)c1)Nc1cccc2[nH]ccc12 [Example 63] | 244 to 245 °C | > 7.00 |
| O=C(Nc1ccc(F)cc1F)Nc1cccc2[nH]ccc12 [Example 64] | 247 to 248 °C | 6.00 to 6.30 |
| Cc1ccc(NC(=O)Nc2cccc3[nH]ccc23)cc1Cl [Example 65] | 246 to 247 °C | > 7.00 |
| CC(C)c1ccc(NC(=O)Nc2cccc3[nH]ccc23)cc1 [Example 66] | 222 to 224 °C | > 7.00 |
| O=C(Nc1ccc(F)cc1)Nc1ccc2[nH]ncc2c1 [Example 67] | > 250 °C | 6.00 to 6.30 |
| O=C(Nc1cc(C(F)(F)F)ccc1Cl)Nc1cccc2[nH]ccc12 [Example 68] | 211 to 213 °C | > 7.00 |
| O=C(Nc1ccc(Oc2ccccc2)cc1)Nc1ccc2[nH]ccc2c1 [Example 69] | 231 to 233 °C | 6.30 to 7.00 |
| Cc1cccc(NC(=O)Nc2ccc3[nH]ccc3c2)c1 [Example 70] | 250 °C | 6.00 to 6.30 |
| CSc1cccc(NC(=O)Nc2ccc3[nH]ccc3c2)c1 [Example 71] | 236 to 239 °C | 6.30 to 7.00 |
| O=C(Nc1ccc(F)cc1)Nc1ccc2[nH]ccc2c1 [Example 72] | 243 to 245 °C | 6.00 to 6.30 |
| COc1cccc(NC(=O)Nc2ccc3[nH]ccc3c2)c1 [Example 73] | 227 to 229 °C | 6.00 to 6.30 |
| O=C(Nc1ccc(Br)cc1)Nc1ccc2[nH]ccc2c1 [Example 74] | > 250 °C | 6.00 to 6.30 |
| O=C(Nc1ccc(Oc2ccccc2)cc1)Nc1ccc2[nH]c(C(F)(F)F)nc2c1 [Example 75] | 239 to 241 °C | 6.00 to 6.30 |
| Cc1cccc(NC(=O)Nc2ccc3[nH]c(C(F)(F)F)nc3c2)c1 [Example 76] | 245 to 247 °C | 6.00 to 6.30 |
| CSc1cccc(NC(=O)Nc2ccc3[nH]c(C(F)(F)F)nc3c2)c1 [Example 77] | 226 to 228 °C | 6.00 to 6.30 |

Second part, the compound after the results:

| melting point | pIC50 (human VR1) | Structure (SMILES) |
| --- | --- | --- |
| 242 to 243 °C | 6.00 to 6.30 | O=C(Nc1ccc(F)cc1)Nc1ccc2[nH]c(C(F)(F)F)nc2c1 [Example 78] |
| 233 to 237 °C | 6.00 to 6.30 | COc1cccc(NC(=O)Nc2ccc3[nH]c(C(F)(F)F)nc3c2)c1 [Example 79] |
| > 250 °C | 6.00 to 6.30 | O=C(Nc1ccc(Br)cc1)Nc1ccc2[nH]c(C(F)(F)F)nc2c1 [Example 80] |
| 240 to 242 °C | 6.00 to 6.30 | O=C(Nc1ccc(Cl)c(Cl)c1)Nc1ccc2[nH]c(C(F)(F)F)nc2c1 [Example 81] |
| 228 to 231 °C | 6.00 to 6.30 | CSc1ccc(NC(=O)Nc2cccc3[nH]ccc23)cc1 [Example 82] |
| 205 to 207 °C | 6.00 to 6.30 | CC(=O)c1cccc(NC(=O)Nc2cccc3[nH]ccc23)c1 [Example 83] |
| 208 to 209 °C | 6.00 to 6.30 | COc1ccccc1NC(=O)Nc1cccc2[nH]ccc12 [Example 84] |
| 194 to 196 °C | > 7.00 | CCOC(=O)c1cccc(NC(=O)Nc2cccc3[nH]ccc23)c1 [Example 85] |
| 104 to 106 °C | 6.00 to 6.30 | O=C(Nc1ccccc1-c1ccccc1)Nc1cccc2[nH]ccc12 [Example 86] |
| 238 to 239 °C | 6.30 to 7.00 | O=C(Nc1cccc(Cl)c1)Nc1cccc2[nH]ccc12 [Example 87] |
| 242 to 243 °C | 6.30 to 7.00 | O=C(Nc1ccc2ccccc2c1)Nc1cccc2[nH]ccc12 [Example 88] |
| 199 to 202 °C | > 7.00 | O=C(NCc1ccc(Br)cc1)Nc1cccc2[nH]ccc12 [Example 89] |
| 225 to 226 °C | 6.00 to 6.30 | O=C(Nc1cccc(F)c1)Nc1cccc2[nH]ccc12 [Example 90] |
| 247 to 248 °C | 6.30 to 7.00 | O=C(Nc1ccc(Cl)cc1)Nc1cccc2[nH]ccc12 [Example 91] |
| 242 to 243 °C | 6.30 to 7.00 | O=C(Nc1ccc(C(F)(F)F)cc1)Nc1cccc2[nH]ccc12 [Example 92] |
| 262 to 263 °C | 6.30 to 7.00 | O=C(Nc1cc(Cl)cc(Cl)c1)Nc1cccc2[nH]ccc12 [Example 93] |
| 244 to 246 °C | 6.00 to 6.30 | O=C(Nc1ccccc1F)Nc1cccc2[nH]ccc12 [Example 94] |
| 244 to 246 °C | 6.30 to 7.00 | O=C(Nc1ccccc1Cl)Nc1cccc2[nH]ccc12 [Example 95] |
| 233 to 235 °C | 6.30 to 7.00 | O=C(Nc1ccc(Cl)c([N+](=O)[O-])c1)Nc1cccc2[nH]ccc12 [Example 96] |
| 261 to 263 °C | 6.00 to 6.30 | O=C(Nc1cc([N+](=O)[O-])ccc1F)Nc1cccc2[nH]ccc12 [Example 97] |
| 248 to 251 °C | 6.30 to 7.00 | O=C(Nc1ccc(F)c([N+](=O)[O-])c1)Nc1cccc2[nH]ccc12 [Example 98] |
| 190 to 192 °C | 6.00 to 6.30 | O=C(NCc1cccc(F)c1)Nc1cccc2[nH]ccc12 [Example 99] |
| 223 °C | 6.30 to 7.00 | Cc1ccc(CNC(=O)Nc2cccc3[nH]ccc23)cc1 [Example 100] |
| 237 to 238 °C | 6.30 to 7.00 | O=C(NCc1ccccc1Cl)Nc1cccc2[nH]ccc12 [Example 101] |
| 201 to 202 °C | 6.00 to 6.30 | COc1ccc(CNC(=O)Nc2cccc3[nH]ccc23)cc1 [Example 102] |
